{
  "source": "patent US9623031B2",
  "about": "“Compositions, methods and kits for treating cancer” (priority 2011, dated 2017)",
  "key": {"[1]": {"system": "Friend virus (FV)-induced erythroleukemia", "assay": "FV-induced erythroleukemia in FV-infected mice, intraperitoneal treatment", "format": "in vivo, mouse", "source_text": "FV-induced erythroleukemia and production of FV leukemia stem cells (FV-LSCs): BALB/c mice were infected with FV as previously described (Subramanian A et al., J Virol. 2008; 82:382-393; Harandi O F et al., J Clin Invest. 2010; 120:4507-4519). On day 14 after infection, spleens were isolated and a single cell suspension of spleen cells was generated. The cells were filtered through a 70 μm sterile filter and flow-through cells were resuspended in RBC lysis buffer followed by centrifugation. Leukemia stem cells were isolated by FACS. Spleen cells were labeled with anti-Kit, Sca1 (BioLegend, San Diego, Calif.) and M34 antibodies. M34 is a monoclonal antibody that recognizes the envelope protein of SFFV (Chesebro B et al., Virology. 1981; 112:131-144) and was used as previously described (Subramanian A et al., J Virol. 2008; 82:382-393). As indicated M34^+Kit^+Sca1^+ cells were cultured in Methocult media (Stem Cell Technologies Vancouver BC) M3334 supplemented with 200 ng/ml Sonic Hedgehog (Shh), 15 ng/ml bone morphogenetic protein-4 (BMP4) (both from R&D Systems Minneapolis, Minn.), and 50 ng/ml stem cell factor (SCF; Peprotech). For CFU-FV assays, cells were plated in methylcellulose media containing fetal calf serum, but lacking added growth factors as previously described (Mager D L et al., Proc Natl Acad Sci USA. 1981; 78:1703-1707).\nComplete blood counts of mice treated with Δ^12-PGJ3 (0.05 mg/kg) were examined. There is no difference in treated mice and untransplanted control mice in terms of white blood cell counts, red blood cell counts or platelet counts. Changes in hematological parameters in FV-infected mice upon treatment with CyPGs were examined. FV-infected Balb/c mice were treated with Δ^12-PGJ3 (0.05 mg/kg) intraperitoneally for 7 d following which the mice were sacrificed and hematological parameters were analyzed on an Advia blood analyzer. FV-infected Δ^12-PGJ3 treated mice were compared to infected vehicle controls. N=5 per group, all data are means±s.e.m. *P<0.05. 3% w/v hydroxypropyl-3-cyclodextrin was used as a vehicle in in vivo experiments. Spleen sizes of FV-infected mice that were treated with either vehicle, 9,10-dihydro-15d-PGJ2 (0.05 mg/kg), or 15d-PGJ2 (0.05 mg/kg) were examined; N=3 pre group. Hematological parameters of Balb/c uninfected, infected, and 15d-PGJ2 treated mice were examined. N=5 per group. All data were means±s.e.m. *P<0.05.\nFV-LSC were targeted by 15d-PGJ2 in the spleen of FV-infected mice. FV-infected mice were treated with 15d-PGJ2 or 9,10-dihydro-15d-PGJ2 at 0.05 mg/kg for 7 d. The splenic LSC (M34^+Sca1^+Kit^+) cells were analyzed by flow cytometry on day 14 post infection. […] Uninfected and infected vehicle controls were used for comparison. N=3; *P<0.05. […] The colonies were counted 10-14 days after plating. N=3 mice per group, *p<0.05."}, "residual FV-LSCs": {"system": "residual FV-LSCs", "assay": "Secondary transplants from treated FV-LSC mice into BALB/c-Stk−/− recipients", "format": "in vivo, mouse", "details": "donor cells from treated FV-LSC transplanted mice", "method": "(§1) Secondary transplants to test for residual LSCs after treatment with Δ^12-PGJ3: For the CML model, B6.SJLPtprca Pep3b/BoyJ (CD45.1^+) mice were treated with 5-FU and bone marrow cells enriched in cycling HSCs were isolated followed by infection with MIGR-BCR-ABL virus or control MSCV-GFP virus as described above. The cells were transplanted into C57BL/6 (CD45.2) recipient mice as mentioned earlier. The mice were treated with Δ^12-PGJ3 or vehicle control as indicated. Two weeks after treatment, spleen cells were isolated and transplanted into irradiated secondary C57BL/6 (CD45.2) recipients as described above. Two weeks after secondary transplant, mice were analyzed for WBC counts, splenomegaly and the presence of GFP^+ or CD45.1 donor cells in the bone marrow and spleen by flow cytometry. Secondary transplants were also done with FV infected mice treated with Δ^12-PGJ3 or vehicle control. BALB/c mice were infected with Friend virus as described above. The mice were treated with Δ^12-PGJ3 or vehicle control as indicated. Two weeks after treatment, spleen cells isolated from FV-infected mice and transplanted into BALB/c-Stk^−/− recipient mice (1×10^5 cells per mouse). Five weeks post transplant, the mice with secondary transplants were tested for WBC counts, splenomegaly and for the presence of M34^+Kit^+Sca1^+FV-LSCs by flow cytometry."}, "residual BCR-ABL LSCs": {"system": "residual BCR-ABL LSCs", "assay": "Secondary transplants from treated BCR-ABL mice (residual LSCs)", "format": "in vivo, mouse", "method": "as §1"}, "[2]": {"system": "BCR-ABL^+LSC transplanted mice", "assay": "Murine CML model: mice transplanted with BCR-ABL+ LSCs", "format": "in vivo, mouse", "experimental": "Induction of CML using MIGR-BCR-ABL retrovirus: MIGR-BCR-ABL and control MSCV-GFP retroviruses were obtained. […] C57BL/6 mice were treated with 5-fluorouracil (5-FU; 150 mg/Kg, Sigma, St. Louis, Mo.) to enrich for cycling HSCs. On day four after treatment bone marrow cells were harvested and infected with MIGR-BCR-ABL or MSCV-GFP control virus overnight in IMDM media containing 5% FCS and supplemented with 2.5 ng/ml IL-3 and 15 ng/ml SCF (R&D Systems Minneapolis, Minn.). 0.5×10^6 transduced cells were transplanted by retro-orbital injection into C57BL/6 recipient mice that were preconditioned with 950 Rads of irradiation. In order to increase the number of CML and control mice, 17 days after transplant GFP^+ spleen cells were isolated by FACS and 1×10^5 GFP^+ cells were transplanted into irradiated (950 Rads) secondary C57BL/6 recipients. Two weeks after transplant, mice were treated as indicated with CyPGs and vehicle control. For ex-vivo experiments, Kit^+Sca1^+Lin^−GFP^+ cells were isolated from the bone marrow or spleen of transplanted mice by FACS. The sorted cells were cultured in Methocult media M3334 (Stem Cell Technologies Vancouver BC) M3334 supplemented with Shh, SCF, and BMP4 and treated with the indicated CyPGs and vehicle controls for indicated time periods. […] The hematopoietic colonies (colony forming cells in culture, CFC) were scored.\nTreatment of Mice with PGs: Mice with FV-induced erythroleukemia or MIGR-BCR-ABL induced CML were treated on the indicated days with CyPGs. Mice were treated with a daily intraperitoneal injection of Δ^12-PGJ3 (0.01-0.1 mg/kg), 15d-PGJ2 (0.1 mg/kg), or 9,10-dihydro-15d-PGJ2 (0.1 mg/kg) for 7 days. All three compounds were formulated with hydroxypropyl-β-cyclodextrin (30% w/v; Sigma; vehicle control)."}, "[3]": {"system": "Human unfractionated bone marrow cells", "experimental": "Human unfractionated bone marrow cells (5×10^5 per well) were plated in methylcellulose complete media containing IL-3, GM-CSF, G-CSF, SCF and Epo supplemented with the indicated concentrations of drugs. Total colonies were counted after 12 days."}, "[4]": {"system": "normal HSCs (MSCV-GFP^+HSC)", "assay": "Effect on normal HSCs (MSCV-GFP+ HSC) treated ex vivo"}, "Survivin": {"system": "Survivin", "assay": "Survivin expression in human AML sample (RT-PCR)", "format": "cell-based", "details": "6 h", "method": "Survivin expression in the human AML sample post Δ^12-PGJ3 treatments was examined. Total RNA was isolated from AML cells with indicated treatments (for 6 h) using Trizol (Invitrogen) cDNA was generated using Superscript II (Invitrogen) and cDNA were quantified by RT-PCR using SYBR green PCR master mix and primers that amplify a 76 nt PCR product. A Taqman probe for GAPDH (Applied biosystems) was used."}, "MCL-1": {"system": "MCL-1", "assay": "MCL-1 expression in primary AML cells (real time PCR)", "format": "cell-based, human", "method": "MCL-1 expression in Δ^12-PGJ3 treated AML was examined. MCL-1 is an antiapoptotic gene that belongs to the Bcl-2 family. Total RNA and cDNA were isolated from primary AML cells as indicated above. MCl-1 expression was measured using real time PCR. (Hs01050896-ml, Applied Biosystems)."}},
  "note": "Entries after “also recorded” stand apart in the source; their conditions may differ.",
  "data": [
    {"smiles": "CC/C=C\\C[C@H](O)C/C=C1/C(=O)C=C[C@@H]1C/C=C\\CCCC(=O)O", "note": "[Δ^12-PGJ3, Δ^12-prostaglandin J3]", "values": [
      {"measurement": "reduction of splenomegaly", "setting": "[1]; 0.01 mg/kg/day i.p. for 7 days", "result": "~50", "unit": "%"},
      {"measurement": "LSCs (Sca1+Kit+M34+) in the spleen", "setting": "[1]; 0.05 mg/kg i.p. 7 d, flow cytometry day 14 post infection", "result": "completely eradicated"},
      {"measurement": "splenomegaly", "setting": "[1]; 0.05 and 0.1 mg/kg/day i.p. for 7 days from day 7 post infection", "result": "no signs of splenomegaly"},
      {"measurement": "spleen histology (H&E)", "setting": "[1]; day 14 post infection", "result": "better demarcation of peri-arteriolar lymphoid tissue"},
      {"measurement": "total leukocyte and reticulocyte counts", "setting": "[1]; i.p. 7 days", "result": "decreased to normal levels"},
      {"measurement": "Bax expression in spleen", "setting": "[1]; mouse, in vivo", "result": "activation of Bax expression"},
      {"measurement": "Friend virus viral replication", "setting": "[1]; mouse, in vivo", "result": "not the viral replication"},
      {"measurement": "TUNEL staining of splenic sections", "setting": "[1]; mouse, in vivo", "result": "increased apoptosis"},
      {"measurement": "CFU-FV colony formation", "setting": "[1]; spleen cells of treated mice plated without growth factors", "result": "completely reduced to background levels"},
      {"measurement": "p53 expression in total spleen", "setting": "[1]; treated for 1 week", "result": "significant expression of p53 in the spleen"},
      {"measurement": "splenomegaly, WBC counts and LSCs in secondary recipients", "setting": "residual FV-LSCs", "result": "failed to develop splenomegaly or high WBC counts and lacked LSCs in their spleens"},
      {"measurement": "Kit+Sca1+GFP+ LSCs in spleen of secondary recipients", "setting": "residual BCR-ABL LSCs; donor cells from treated mice", "result": "lacked Kit^+Sca1^+GFP^+ cells"},
      {"measurement": "splenomegaly and WBC counts in secondary recipients", "setting": "residual BCR-ABL LSCs; donor spleen cells from treated mice, two weeks after secondary transplant", "result": "failed to develop splenomegaly or high WBC counts"},
      {"measurement": "splenomegaly", "setting": "[2]; 0.05 mg/kg for 1 week", "result": "completely alleviated splenomegaly"},
      {"measurement": "Kit+Sca1+GFP+ LSCs in the spleen", "setting": "[2]; 1 week treatment", "result": "decreased"},
      {"measurement": "Kit+Sca1+Lin−GFP+ LSCs in the bone marrow", "setting": "[2]; 1 week treatment", "result": "eradicated"},
      {"measurement": "leukocyte counts in peripheral blood", "setting": "[2]; 1 week treatment", "result": "significantly decreased the leukocyte counts"},
      {"measurement": "survival and relapse, comparison with imatinib", "setting": "[2]; Imatinib 75 mg/kg, Δ^12-PGJ3 0.025 mg/kg, 1 week", "result": "prolonged survival, but no relapse of leukemia"},
      {"measurement": "relapse after last dose", "setting": "[2]; intraperitoneal, five weeks post last dose", "result": "no relapse"},
      {"measurement": "survival", "setting": "[2]; vehicle mice died two weeks after transplantation", "result": "rescued all of the mice"},
      {"measurement": "total colonies of human bone marrow cells", "setting": "[3]", "result": "had no effect"},
      {"measurement": "effect on normal HSCs", "setting": "[4]; Kit+Sca1+Lin−GFP+ cells from MSCV-control mice, ex vivo 36 h", "result": "no adverse effects on HSCs or downstream progenitors; also recorded: did not affect the normal HSCs"},
      {"measurement": "viability of MSCV-HSC control cells", "setting": "[4]; antagonists/inhibitor 10 nM, Δ^12-PGJ3 25 nM, 36 h", "result": "not affected"},
      {"measurement": "survivin expression", "setting": "Survivin", "result": "decreases the expression of survivin"},
      {"measurement": "MCL-1 expression", "setting": "MCL-1", "result": "decreases the expression MCL1"}
    ]}
  ]
}
